Active and inactive are the calls of the source.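 Rule for the calls: active = AC50 no more than tenfold above the top dose tested, or full inhibition at every dose with a flat fit (cut at about 19 µM in these data); inconclusive = flat curve fit with inhibition between 30% and 70%, or poor fit; inactive = AC50 more than tenfold above the top dose tested.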
Tested on: HMLE_sh_eGFP viability, CellTiter-Glo luminescence, 72 h
Test: cytotoxicity in HMLE control line with eGFP shRNA, dose response, counter-screen for HMLE_sh_ECad selective toxicity project, cell-based, HMLE_sh_eGFP, luminescence (AID 463074);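 note: counterscreen control line to flag general toxicity for the HMLE_sh_ECad screen; potency for loss of viability as luminescence drops below DMSO wells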

## CN(C)CCNC(=O)COc1ccc(C23CC4CC(CC(C4)C2)C3)cc1
  AC50: 4.09 µM

## Clc1ccc(-c2ccc(/C=N/Nc3cc(N4CCOCC4)nc(N4CCOCC4)n3)o2)cc1
  AC50: 4.24 µM

## O=c1[nH]c(CN2CC=C(c3ccccc3)CC2)nc2scc(-c3ccccc3)c12
  AC50: 5.19 µM

## CCN(CC(=O)Nc1ccc(NC(C)=O)cc1)C(=O)c1ccccc1CCc1ccccc1
  AC50: > 19.5 µM (inactive)

## Cc1cc(C)c2nc(NNC(=O)c3cc(-c4cccs4)nc4ccccc34)sc2c1
  AC50: 2.95 µM

## C=CCC[C@H](Cc1ccc(F)cc1)C(=O)O[C@H](CNC(=O)[C@@H](CC=C)CC(=O)N(CCO)Cc1ccccc1)c1ccccc1
  AC50: 7.4 µM

## Cc1ccc(C(=O)ONc2ccc(N=NC(=O)c3ccccc3O)cc2)cc1
  AC50: 3.56 µM

## Cc1ccc2nc(-c3ccccn3)c(Nc3ccccc3C)n2c1
  AC50: 5.04 µM

## O=C(N/N=C/c1ccc(OC2CSC2)cc1)c1ccccc1
  AC50: 2.85 µM

## O=C1C(Cl)=C(Nc2ccccc2)C(=O)c2ccccc21
  AC50: 2.19 µM

## Cc1nc2ccccc2n1/N=C/c1ccc([N+](=O)[O-])o1
  AC50: 13.9 µM

## CCCCc1oc2ccccc2c1C(=O)c1cc(I)c(OCCN(CC)CC)c(I)c1
  AC50: 6.92 µM

## O=C(Nc1ccc(Nc2ccccc2)cc1)c1cccc(F)c1
  AC50: 17.6 µM

## CCOC(=O)c1c(CSc2ccccc2)n(C)c2cc(Br)c(OCC(O)CNC(CO)(CO)CO)cc12 (stereo unspecified)
  AC50: 1.84 µM

## C=CCn1c(SCc2c(C)noc2C)nc2sc3c(c2c1=O)CCCCC3
  AC50: 1.42 µM

## COc1cccc(NP(=O)(Oc2ccc(Cl)cc2)Oc2ccc(Cl)cc2)c1
  AC50: 5.83 µM

## C=CCNc1ncnc2c1ncn2C1OC(CO)C(O)C1O (stereo unspecified)
  AC50: 4.39 µM

## COc1ccc2nc(C)cc(SCC(=O)N/N=C/c3ccc(O)cc3O)c2c1
  AC50: 2.33 µM

## C/C(=N\Nc1ccccc1)c1c(O)n(C)c(=O)n(C)c1=O
  AC50: 4.05 µM

## CC(C)N1C(=O)/C(=C\c2nc3ccccc3c(=O)n2-c2ccccc2)c2ccccc21
  AC50: 9.85 µM

## CCOC(=O)CS(=O)(=O)c1nc(-c2ccccc2)cc(C(F)(F)F)n1
  AC50: 3.25 µM

## COc1ccc(OC)c(-c2cc(-c3cccnc3)nc(N)c2C#N)c1
  AC50: 1.95 µM

## Cc1[nH]n(-c2ncc(-c3ccc(Cl)cc3)s2)c(=O)c1C(c1ccc(Cl)cc1)C(C#N)C#N (stereo unspecified)
  AC50: 3.86 µM

## CCN(CC)CCOc1ccc(/C(=C(\Cl)c2ccccc2)c2ccccc2)cc1
  AC50: 1.55 µM

## CC(Nc1nc(-c2ccccc2)nc2ccccc12)c1ccccc1 (stereo unspecified)
  AC50: 5.38 µM

## O=C(O)c1cccc(S(=O)(=O)NNc2ccccc2C(F)(F)F)c1
  AC50: 11.3 µM

## Cn1c(O)c(/C=N/Nc2ccccc2)c(=O)n(C)c1=O
  AC50: 4.08 µM

## CCCCCCc1cc2cc(S(=O)(=O)c3ccc(Cl)cc3)c(=O)oc2cc1O
  AC50: 9.25 µM

## CCCCCCOc1ccc(OC(=O)c2ccncc2)cc1
  AC50: 5.43 µM

## Cc1nc(NC(=O)c2ccco2)sc1-c1csc(Nc2ccc(Cl)cc2)n1
  AC50: 2.54 µM

## C=CCc1cccc(CNc2nc3ccccc3n2CCC)c1O
  AC50: 13.5 µM

## CN1CCN(c2ccc(NC(=O)COc3ccc(Cl)cc3Cl)cc2)CC1
  AC50: 5.38 µM

## CN1CCN(c2ccc(S(=O)(=O)N3CCCCC3)cc2NC(=O)/C=C/c2ccc(Cl)c([N+](=O)[O-])c2)CC1
  AC50: 4.42 µM

## CC(C)(C)c1ccc(C(=O)NCCCN2CCN(CCCNC(=O)c3ccc(C(C)(C)C)cc3)CC2)cc1
  AC50: 3.25 µM

## COc1ccc(-n2nc3c(N4CCC(C(=O)NCCc5ccccc5C)CC4)nnc(C)c3c2C)cc1
  AC50: 4.85 µM

## O=C(NCc1cccnc1)/C(=C\c1ccc(-c2cccc(Cl)c2)o1)S(=O)(=O)c1ccccc1
  AC50: 3.13 µM

## O=C(CCc1ccc(Oc2cc([N+](=O)[O-])cc([N+](=O)[O-])c2)cc1)N1CCCCCC1
  AC50: 8.85 µM

## O=C(O)CCCCCN1C(=O)/C(=C\c2cn(-c3ccccc3)nc2-c2cccs2)SC1=S
  AC50: 3.5 µM

## CCN1CCN(CCCNC(=O)c2ccc3c(c2)NC(=O)/C(=C\c2cccc(C)c2)S3)CC1
  AC50: 3.62 µM

## Cc1ccc(NC(=S)Nc2cccc3cnccc23)cc1C
  AC50: > 19.5 µM (inactive)

## CN(C)/C=C(\C=N\OCc1ccc(Cl)cc1Cl)C(=O)Nc1ccc(Cl)c(Cl)c1
  AC50: 4.22 µM

## Clc1cc2cccnc2c2ncccc12
  AC50: 3.56 µM

## COc1ccc(C(=O)/C=C/c2ccc(OC)c(Cn3nnc4ccccc43)c2)cc1
  AC50: 6.82 µM

## Cn1nc(-c2ccccc2F)c2cc(C(=O)Nc3ccc4c(c3)OCCO4)sc21
  AC50: > 19.5 µM (inactive)

## CC(=O)NC(c1ccccc1)c1cc([N+](=O)[O-])c2cccnc2c1O (stereo unspecified)
  AC50: 4.02 µM

## C[C@]12CC[C@H]3[C@@H](CC[C@]4(O)C[C@@H](O)CC[C@]34C=O)[C@@]1(O)CC[C@@H]2C1=CC(=O)OC1
  AC50: 0.446 µM

## CCN1CCN(CCCOc2ccc(-c3ccccc3)cc2)CC1
  AC50: 5.67 µM

## COc1ccc(NS(=O)(=O)c2cc(NC(=O)c3ccc(=O)[nH]c3)ccc2N2CCCC2)cc1
  AC50: 1.1 µM

## N/C(=N\N=C/c1ccc(Br)cc1)N/N=C\c1ccc(Br)cc1
  AC50: 3.83 µM

## COc1cc(/C=N/N(c2ccccc2)c2ccccc2)ccc1O
  AC50: 6.34 µM

## Brc1cccc(OCCN2CCc3ccccc3C2)c1
  AC50: > 19.5 µM (inactive)

## O=C1C=C(c2ccc(Cl)c(C(F)(F)F)c2)C[C@@H](c2ccc(Cl)cc2)C1
  AC50: 3.52 µM

## NC(=O)c1cc([N+](=O)[O-])ccc1NCc1ccc(O)cc1
  AC50: 3.1 µM

## CC(C)C(=O)NC(c1ccccc1)c1cc([N+](=O)[O-])c2cccnc2c1O (stereo unspecified)
  AC50: 5.91 µM

## CC1(C)CC2CC(C)(CN2/C=N/c2sc3c(c2C#N)CC(C)(C)NC3(C)C)C1 (stereo unspecified)
  AC50: 2.59 µM

## CCCC(c1nnnn1CC1CCCO1)N1CCN(c2cc(Cl)ccc2C)CC1 (stereo unspecified)
  AC50: 2.78 µM

## O=C(Nc1ccc2c(c1)OCCO2)C(=O)c1c[nH]c2ccccc12
  AC50: 1.85 µM

## COc1ccc(CCCC(=O)N/N=C/c2cccc(OC)c2O)cc1C
  AC50: 3.13 µM

## CC1=NN(c2nc(-c3ccc(Cl)cc3)cs2)C(=O)C1
  AC50: 12.3 µM

## O=C(/C=C/c1cc2ccccc2o1)c1ccccc1O
  AC50: 10.1 µM

## O=c1c2c3c(sc2ncn1/N=C/c1ccc([N+](=O)[O-])o1)CCCC3
  AC50: 6.48 µM

## Cc1cc(C)c(C(=O)/C=C/c2ccc(C(C)C)cc2)c(=O)[nH]1
  AC50: 10.1 µM

## COc1ccc(/C=N/OCC(=O)N2CC3(C)CC2CC(C)(C)C3)cc1 (stereo unspecified)
  AC50: 14.3 µM

## O=C(CNC(=O)C1COc2ccccc2O1)N/N=C/c1ccc(O)cc1O (stereo unspecified)
  AC50: 5.21 µM

## C=C[C@@H]1c2cc(C)ccc2N(S(=O)(=O)c2ccc(C)cc2)[C@H](c2ccc(OC(C)=O)cc2)C1(C#N)C#N
  AC50: 1.3 µM

## CC1=NN(c2ccccc2)C(=O)/C1=C/C=C/c1ccccc1
  AC50: 3.57 µM

## CC1CCCC(NC(=S)Nc2ccc(SC(F)F)cc2)C1C (stereo unspecified)
  AC50: 6.34 µM

## Cc1cc2c(cc1C)CSC(c1c(O)ccc3ccccc13)SC2
  AC50: 3.12 µM

## CCc1cc2ccc(C)cc2nc1SCC(=O)c1ccc(NC(C)=O)cc1
  AC50: 9.7 µM

## C=CCn1c(O)c(C2=c3ccccc3=NC2=O)c2ccccc21
  AC50: 7.4 µM

## CC(C)(C)C1CCc2c(sc(NC(=O)CSc3ncn[nH]3)c2C#N)C1 (stereo unspecified)
  AC50: 4.79 µM

## Cc1ccc(C)c(N2CCN(C(=S)Nc3ccc4nc(N5CCN(C)CC5)cc(C)c4c3)CC2)c1
  AC50: 7.7 µM

## O=C(NC(=S)Nc1ccc(N2CCCCC2)c(Cl)c1)c1ccc2c(c1)OCCO2
  AC50: 3.58 µM

## CCN(CC)CCNc1ncnc2c1sc1nc(N3CCOCC3)c3c(c12)CC(C)(C)SC3
  AC50: 6.99 µM

## Cc1ccc(-n2nnnc2Sc2ccc(S(=O)(=O)NCCN(C)C)cc2[N+](=O)[O-])cc1
  AC50: 6.72 µM

## COC(=O)c1cc(=O)n(Cc2cccs2)c(=Nc2ccc(F)cc2)s1
  AC50: 3.58 µM

From PubChem BioAssay AID463074 (Broad Institute, 2010)
